Measurements: patent publication US20230002352A1, “SULFONAMIDE DERIVATIVES AS CTPS1 INHIBITORS” (Step Pharma S.A.S., priority 2019, published 2023)
Like-named read-outs stand apart in the source and are kept apart here.

Assays:
[1] = target: T1, human CTPS1 (Homo sapiens, UniProt P17812); experiment: Human CTPS1 enzyme inhibition (ADP-Glo Max assay); type: biochemical; conditions: ADP-Glo Max assay, read-out: CTPS1 (Human CTPS1 Enzyme Inhibition data grouped by potency range, IC50)
T1 construct: purchased Proteros biostructures GmbH
T1 sequence (P17812 1-591): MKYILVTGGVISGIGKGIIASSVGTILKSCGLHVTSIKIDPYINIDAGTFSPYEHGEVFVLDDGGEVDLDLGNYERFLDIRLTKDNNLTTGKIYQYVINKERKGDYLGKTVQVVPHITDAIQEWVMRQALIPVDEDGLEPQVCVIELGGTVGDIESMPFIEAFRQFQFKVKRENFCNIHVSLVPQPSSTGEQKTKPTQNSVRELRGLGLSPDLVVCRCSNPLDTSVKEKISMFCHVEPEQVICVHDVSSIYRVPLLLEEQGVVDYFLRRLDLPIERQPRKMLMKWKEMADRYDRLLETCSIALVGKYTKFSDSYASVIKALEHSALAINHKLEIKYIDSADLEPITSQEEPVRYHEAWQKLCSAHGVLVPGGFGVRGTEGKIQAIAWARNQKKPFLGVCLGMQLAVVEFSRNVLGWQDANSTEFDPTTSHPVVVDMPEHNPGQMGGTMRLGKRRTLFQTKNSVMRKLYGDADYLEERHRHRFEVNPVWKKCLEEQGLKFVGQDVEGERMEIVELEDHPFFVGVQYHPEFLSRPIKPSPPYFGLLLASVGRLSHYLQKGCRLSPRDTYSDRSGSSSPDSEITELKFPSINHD
Outline: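 Full-length FLAG-His-tagged human CTPS1 and compound were preincubated 10 min at 25 °C in 50 mM Tris pH 8.0, 10 mM MgCl2, 0.01% Tween-20, 2 mM L-cysteine. Substrate mix: ATP 0.31 mM, GTP 0.034 mM, UTP 0.48 mM, glutamine 0.186 mM; linear-phase reaction at 25 °C. ADP-Glo Max luminescence; IC50 from inhibition curve.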

[2] = test system: human CTPS1 versus CTPS2; experiment: Human CTPS1 versus CTPS2 selectivity assessment by RapidFire/MS analysis; type: biochemical
Description: Biological Example 2—RapidFire/MS-Based Enzyme Selectivity Assays.
Human CTPS1 Versus CTPS2 Selectivity Assessment by RapidFire/MS Analysis.
The enzyme inhibitory activities against each target isoform of interest may be determined for the compounds of the invention using an optimised RapidFire high-throughput mass spectrometry (RF/MS) assay format. RF/MS assays for both human CTPS1 and CTPS2 may be performed in assay buffer consisting of 50 mM HEPES (Merck), 20 mM MgCl2, 5 mM KCl, 1 mM DTT, 0.01% Tween-20, pH to 8.0 accordingly. Human full-length active C-terminal FLAG-His-tag CTPS1 (UniProtKB-P17812, CTPS[1-591]-[…]) may be obtained from Proteros biostructures GmbH. Human full length active C-terminal FLAG-His-Avi tagged CTPS2 (UniProtKB-Q9NRF8, CTPS2 [1-586]-[…]) may be obtained from Harker Bio.
Human CTPS (1 or 2) protein may be prepared in 1× assay buffer to the final working protein concentration required for the reaction. A 2 uL volume per well of 2×CTPS (1 or 2) protein may be mixed with 40 nL of compound using acoustic (ECHO) delivery and incubated for 10 minutes at 25° C. Each isoform enzymatic reaction may be subsequently initiated by addition of 2 uL per well of a 2× substrate mix in assay buffer. For hCTPS1: ATP (0.3 mM), UTP (0.2 mM), GTP (0.07 mM) and L-glutamine (0.1 mM). For hCTPS2: ATP (0.1 mM), UTP (0.04 mM), GTP (0.03 mM) and L-glutamine (0.1 mM). Each mixture may be incubated for an appropriate amount of time per isoform within the determined linear phase of the reaction at 25° C. A 60 uL volume of stop solution (1% formic acid with 0.5 uM ^13C9-^15N3-CTP in H2O) may be added and the plate immediately heat-sealed and centrifuged for 10 minutes at 4,000 rpm. Following centrifugation, plates may be loaded onto the Agilent RapidFire microfluidic solid phase extraction system coupled to an AP14000 triple quadrupole mass spectrometer (RF/MS) for analysis.
In all cases, the enzyme converts UTP to CTP. Highly specific and sensitive multiple reaction monitoring (MRM) MS methods may be optimised for the detection of the enzymatic reaction product, CTP, and the stable isotope labelled product standard ^13C9-^15N3-CTP. Readout for data analysis may be calculated as the ratio between the peak area of the product CTP and the internal standard ^13C9-^15N3-CTP. For data reporting, the following equation may be used: […]
For each screening plate, the means of the negative (DMSO) and positive control values were used for the calculation of the respective assay window (S/B) and Z′ values. The median of the respective control values was used for calculation of percent inhibition according to the following equation: […]
Percentage inhibition was then plotted against compound concentration, and the 50% inhibitory concentration (IC50) was determined from the resultant concentration-response curve.
Fold selectivity between CTPS1 and CTPS2 was subsequently calculated according to the following equation: […]

Row | SMILES | IC50 ([1]; Table 23) [nM] | IC50 ([1]; Table 24) [nM] | Selectivity (fold selectivity between CTPS1 and CTPS2) ([2]; Table 26) | Selectivity (fold selectivity between CTPS1 and CTPS2) ([2]; Table 27)
1 | CCOc1cncc(-c2ccc(NC(=O)C3(c4ccnc(NS(=O)(=O)C5CC5)n4)CCCC3)cc2)n1 [Example P2, 1-(2-(Cyclopropanesulfonamido)pyrimidin-4-yl)-N-(4-(6-ethoxypyrazin-2-yl)phenyl)cyclopentanecarboxamide] | ≤ 100 |  | +++ (>60 fold (+++)) | 
2 | CC(C)(C(=O)Nc1ccc(-c2cncc(C3CC3)n2)cn1)c1ccnc(NS(=O)(=O)C2CC2)n1 [Example P125] | 100 to 1000 |  | ++ (>30-60 fold (++)) | 
3 | CCOc1cncc(-c2ccc(NC(=O)C(CCOC)c3ccnc(NS(=O)(=O)C4CC4)n3)nc2)n1 (centres unmarked) [Example P145] | ≤ 100 |  | +++ (>60 fold (+++)) | 
4 | CC(C)(C(=O)Nc1ccc(-c2cncc(C3CC3)n2)cc1F)c1ccnc(NS(=O)(=O)C2CC2)n1 [Example P128] | 100 to 1000 |  | + (2-30 fold (+)) | 
5 | CCC(C(=O)Nc1ncc(-c2cncc(OC)n2)cc1F)c1ccnc(NS(=O)(=O)C2CC2)n1 (centres unmarked) [Example P158] | 100 to 1000 |  | + (2-30 fold (+)) | 
6 | CCOc1cncc(-c2ccc(NC(=O)C(C)(C)c3nc(NS(=O)(=O)C4CC4)ncc3F)cc2)n1 [Example P68] | 100 to 1000 |  | ++ (>30-60 fold (++)) | 
7 | CCOc1cncc(-c2ccc(NC(=O)C(F)(CC)c3ccnc(NS(C)(=O)=O)n3)nc2)n1 (centres unmarked) [Example P151] | ≤ 100 |  | +++ (>60 fold (+++)) | 
8 | CC(C)c1cncc(-c2ccc(NC(=O)C(C)(C)c3ccnc(NS(=O)(=O)C4CC4)n3)cc2)n1 [Example P132] | 100 to 1000 |  | ++ (>30-60 fold (++)) | 
9 | CCOc1cncc(-c2ccc(NC(=O)C(C)(C)c3ccnc(NS(=O)(=O)C4CC4)n3)c(C#N)c2)n1 [Example P34] | ≤ 100 |  | + (2-30 fold (+)) | 
10 | CC(C)Oc1cncc(-c2ccc(NC(=O)Cc3ccnc(NS(=O)(=O)C4CC4)n3)c(F)c2)n1 [Example P12] | ≤ 100 |  | ++ (>30-60 fold (++)) | 

Continued, in another order:

Row | IC50 ([1]; Table 23) [nM] | IC50 ([1]; Table 24) [nM] | SMILES | Selectivity (fold selectivity between CTPS1 and CTPS2) ([2]; Table 26) | Selectivity (fold selectivity between CTPS1 and CTPS2) ([2]; Table 27)
11 |  | ≤ 100 | CCOc1cncc(-c2ccc(NC(=O)C3(c4ccnc(NS(=O)(=O)C5CC5)n4)CCC(=O)CC3)nc2)n1 [Example P226, 1-(2-(Cyclopropanesulfonamido)pyrimidin-4-yl)-N-(5-(6-ethoxypyrazin-2-yl)pyridin-2-yl)-4-oxocyclohexanecarboxamide] |  | +++ (>60 fold (+++))
12 |  | ≤ 100 | CCOc1cncc(-c2ccc(NC(=O)C3(c4ccnc(NS(=O)(=O)C5CC5)n4)CCN(S(C)(=O)=O)CC3)nc2)n1 [Example P251] |  | +++ (>60 fold (+++))
13 | ≤ 100 |  | CCOc1cncc(-c2ccc(NC(=O)C(C)(C)c3cncc(NS(=O)(=O)C4CC4)n3)cc2)n1 [Example P196] | +++ (>60 fold (+++)) | 
14 |  | ≤ 100 | CCOc1cncc(-c2ccc(NC(=O)C3(c4ccnc(NS(=O)(=O)C5CC5)n4)CCC4(CC3)OCCO4)nc2)n1 [Example P244, 8-(2-(cyclopropanesulfonamido)pyrimidin-4-yl)-N-(5-(6-ethoxypyrazin-2-yl)pyridin-2-yl)-1,4-dioxaspiro[4.5]decane-8-carboxamide] |  | +++ (>60 fold (+++))
15 | 100 to 1000 |  | CC(C)Oc1cncc(-c2ccc(C(=O)NC(C)(C)c3cncc(NS(=O)(=O)C4CC4)n3)c(F)c2)n1 [Example P221] | + (2-30 fold (+)) | 
16 | ≤ 100 |  | CCOc1cncc(-c2ccc(NC(=O)C(C)(CC)c3ccnc(NS(=O)(=O)C4CC4)n3)nc2)n1 (centres unmarked) [Example P163] | +++ (>60 fold (+++)) | 
